The values below come from ChEMBL document CHEMBL1127784, “Design and synthesis of peptidomimetic inhibitors of HIV-1 protease and renin. Evidence for improved transport” (J Med Chem, 1994).

pIC50: −log10 of the molar value.

For assay [1], the target named is Human immunodeficiency virus type 1 protease (Human immunodeficiency virus 1) (UniProt Q72874). Briefly: Tested for the relative potency against HIV-1 protease in the cellular antiviral assay.
For assay [2], the target named is Human immunodeficiency virus type 1 protease (Human immunodeficiency virus 1, UniProt Q72874). The assay can be described thus: In vitro inhibitory concentration against HIV-1 protease.
The target in the next assay is T1, Renin (Homo sapiens, UniProt P00797).
T1 sequence (P00797 whole entry): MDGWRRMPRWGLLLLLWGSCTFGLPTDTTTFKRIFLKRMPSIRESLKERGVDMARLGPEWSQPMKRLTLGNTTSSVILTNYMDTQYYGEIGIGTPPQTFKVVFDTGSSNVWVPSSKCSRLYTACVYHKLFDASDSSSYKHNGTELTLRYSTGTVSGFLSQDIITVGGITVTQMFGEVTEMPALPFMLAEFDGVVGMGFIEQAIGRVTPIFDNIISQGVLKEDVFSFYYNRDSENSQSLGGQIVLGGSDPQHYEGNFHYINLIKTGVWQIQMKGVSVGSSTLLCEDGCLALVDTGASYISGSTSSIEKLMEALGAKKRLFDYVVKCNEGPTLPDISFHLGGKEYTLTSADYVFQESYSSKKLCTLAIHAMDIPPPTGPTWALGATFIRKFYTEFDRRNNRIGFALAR
The assay can be described thus: In vitro inhibitory concentration against renin.

In assay [1], `CC(C)C[C@H](NC(=O)[C@H](Cc1ccccc1)C[C@H](O)[C@H](Cc1ccccc1)NC(=O)OC(C)(C)C)C(=O)N[C@@H](Cc1ccccc1)C(N)=O` had a concentration for an effect of 95% (IC95) of 6000 nM. This counts as single-digit micromolar.

In turn, `CC(C)C[C@@]1(C2=C(O)[C@](Cc3ccccc3)(C[C@H](O)[C@H](Cc3ccccc3)NC(=O)O[C@@H]3CCOC3)N=C2)N=CC([C@@H](Cc2ccccc2)C(N)=O)=C1O` showed a pIC50 in assay [2] of 8.89. The same molecule came in with an IC95 in assay [1] of 800 nM.

For the molecule `CC(C)C[C@@H](C(=O)N[C@@H](CC1CCCCC1)[C@@H](O)[C@@H](O)CC(C)C)C1=C(O)[C@@](CC(=O)N2CCOCC2)(Cc2ccccc2)N=C1`, the pIC50 at Renin was 6.22. In assay [2], `CC(C)C[C@@]1(C2=C(O)[C@](Cc3ccccc3)(C[C@H](O)[C@H](Cc3ccccc3)NC(=O)OC(C)(C)C)N=C2)N=CC([C@@H](Cc2ccccc2)C(N)=O)=C1O` showed a negative logarithm of the IC50 (pIC50) of 8.00. Moreover, in assay [1], the concentration for an effect of 95% (IC95) came out at 1500 nM. The molecule `CC(C)C[C@H](O)[C@H](O)[C@H](CC1CCCCC1)C1=C(O)[C@](CC(C)C)(C2=C(O)[C@@](CC(=O)N3CCOCC3)(Cc3ccccc3)N=C2)N=C1` had a pIC50 against Renin of 4.74.

As usually defined, the IC95 is the point of the concentration-response curve where the effect stands at 95%. Broadly, the pIC50 is the IC50 on a negative log10 scale, so that one unit is a factor of ten. Lower therefore signals a high IC50.
